Results on 3 molecules are retold here after the NIST ThermoML archive (doi:10.1021/acs.jced.8b00487).

Values joined by “and” are separate entries in the source; they are usually repeats but may differ in a detail not shown here. Identical values can stand only once. ± gives the expanded uncertainty stated by the source.

The conditions of data set [1]: 298.15 K, Liquid, Vibrating tube method.
The nature of data set [2]: xn = mol fraction of the nth substance listed. The conditions noted are these: 298.15 K, 101 kPa, Liquid, Vibrating tube method.

In the case of `Cc1ccccc1C` [1,2-dimethylbenzene], the mass density in data set [1] (101.33 kPa) was determined as 875.6 ± 0.5 kg/m3.
On to `CCCCC(CC)COP(=O)(O)OCC(CC)CCCC` (centres undefined) [bis(2-ethylhexyl) hydrogen phosphate], for which the mass density in data set [1] (101 kPa) is 971 ± 2 kg/m3 and 970.5 ± 2 kg/m3; in data set [1] (101.33 kPa), 969.1 ± 0.6 kg/m3.
On to `CCCCC(CC)COP(=O)([O-])OCC(CC)CCCC.CCCCC(CC)COP(=O)([O-])OCC(CC)CCCC.CCCCC(CC)COP(=O)([O-])OCC(CC)CCCC.[Tb+3]` (centres undefined) [terbium(III) bis(2-ethylhexyl) phosphate] + CCCCC(CC)COP(=O)(O)OCC(CC)CCCC, for which the mass density in data set [2] (x1 = 0.00621) is 973.7 ± 2 kg/m3; in data set [2] (x1 = 0.0103), 975.8 ± 2 kg/m3; in data set [2] (x1 = 0.01167) it was 976.6 ± 2 kg/m3; in data set [2] (x1 = 0.01875), 980 ± 2 kg/m3; in data set [2] (x1 = 0.02771), 984.4 ± 2 kg/m3; in data set [2] (x1 = 0.04671), 993.3 ± 2 kg/m3.

Broadly, the mass density is mass per unit of volume.
